Measured values taken from ChEMBL document CHEMBL1137656, “Effects of serum on in vitro susceptibility testing of echinocandins” (Antimicrob Agents Chemother, 2007).
Numbered stars: 1 amine (or outer) side, 2 acyl side, 3 side chain; on linkers, the order of the positions; unused ones are H or OH. Bridge positions count the residues as written; N and C are the ends. Square brackets hold non-standard residues; d marks the D form. Peptide text beside a SMILES is read from it. * marks the point of attachment. hTyr(3S-OH,4S-OH,3'-OSO3H) = N[C@H](C(=O)O)[C@H](O)[C@@H](O)c1ccc(O)c(OS(=O)(=O)O)c1; Orn(4R-OH,5R-OH) = O=C([C@H](C[C@@H](O)[C@@H](O)N[*:3])N[*:1])[*:2]; Pro(3S-OH,4S-Me) = C[C@H]1CN[C@H](C(=O)O)[C@H]1O; X1 = CCCCCOc1ccc(-c2cc(-c3ccc(C(=O)*)cc3)no2)cc1; Gln(3R-OH) = NC(=O)C[C@@H](O)[C@H](N)C(=O)O; Hyp = O=C(O)[C@@H]1C[C@@H](O)CN1

Key:
Assay type in all cases: functional
[1] = system: Candida parapsilosis; assay: Antifungal activity against Candida parapsilosis isolate 0026-003 after 24 hrs by CLSI M27-A2 broth microdilution method in presence of RPMI 1640 medium; conditions: Lodderomyces parapsilosis, isolate 0026-003, 24 h
[2] = system: Clavispora lusitaniae; assay: Antifungal activity against Candida lusitaniae isolate 0015-049 after 24 hrs by CLSI M27-A2 broth microdilution method in presence of RPMI 1640 medium; conditions: isolate 0015-049, 24 h
[3] = system: Nakaseomyces glabratus; assay: Antifungal activity against Candida glabrata isolate 0049-038 after 24 hrs by CLSI M27-A2 broth microdilution method in presence of 50% human serum; conditions: isolate 0049-038, 24 h
[4] = system: Candida parapsilosis; assay: Antifungal activity against Candida parapsilosis isolate 0036-030 after 24 hrs by CLSI M27-A2 broth microdilution method in presence of RPMI 1640 medium; conditions: Lodderomyces parapsilosis, isolate 0036-030, 24 h
[5] = system: Aspergillus fumigatus; assay: Antifungal activity against Aspergillus fumigatus isolate 0002-0016 after 24 hrs by CLSI M38-A broth microdilution method in presence of 50% human serum; conditions: isolate 0002-0016, 24 h
[6] = system: Candida parapsilosis; assay: Antifungal activity against Candida parapsilosis ATCC 22019 after 24 hrs by CLSI M27-A2 broth microdilution method in presence of RPMI 1640 medium; conditions: Lodderomyces parapsilosis, ATCC 22019, 24 h
[7] = system: Candida albicans; assay: Antifungal activity against Candida albicans isolate 0012-025 after 24 hrs by CLSI M27-A2 broth microdilution method in presence of RPMI 1640 medium; conditions: isolate 0012-025, 24 h
[8] = system: Aspergillus niger; assay: Ratio of MIC50 for Aspergillus niger isolate 0001-073 in presence of 50% human serum to MIC50 for Aspergillus niger isolate 0001-073 in presence of RPMI 1640 medium
[9] = system: Nakaseomyces glabratus; assay: Ratio of MIC50 for Candida glabrata isolate 0022-012 in presence of 50% human serum to MIC50 for Candida glabrata isolate 0022-012 in presence of RPMI 1640 medium
[10] = system: Candida albicans; assay: Antifungal activity against Candida albicans isolate 0012-025 after 24 hrs by CLSI M27-A2 broth microdilution method in presence of 50% human serum; conditions: isolate 0012-025, 24 h
[11] = system: Pichia kudriavzevii; assay: Antifungal activity against Candida krusei isolate 0001-058 after 24 hrs by CLSI M27-A2 broth microdilution method in presence of 50% human serum; conditions: isolate 0001-058, 24 h
[12] = system: Candida parapsilosis; assay: Antifungal activity against Candida parapsilosis isolate 0036-030 after 24 hrs by CLSI M27-A2 broth microdilution method in presence of 50% human serum; conditions: Lodderomyces parapsilosis, isolate 0036-030, 24 h
[13] = system: Candida parapsilosis; assay: Ratio of MIC50 for Candida parapsilosis isolate 0014-074 in presence of 50% human serum to MIC50 for Candida parapsilosis isolate 0014-074 in presence of RPMI 1640 medium
[14] = system: Clavispora lusitaniae; assay: Ratio of MIC50 for Candida lusitaniae isolate 0015-049 in presence of 50% human serum to MIC50 for Candida lusitaniae isolate 0015-049 in presence of RPMI 1640 medium
[15] = system: Aspergillus flavus; assay: Antifungal activity against Aspergillus flavus isolate 0001-033 after 24 hrs by CLSI M38-A broth microdilution method in presence of 50% human serum; conditions: isolate 0001-033, 24 h
[16] = system: Pichia kudriavzevii; assay: Ratio of MIC50 for Candida krusei isolate 0001-058 in presence of 50% human serum to MIC50 for Candida krusei isolate 0001-058 in presence of RPMI 1640 medium
[17] = system: Aspergillus flavus; assay: Antifungal activity against Aspergillus flavus isolate 0001-033 after 24 hrs by CLSI M38-A broth microdilution method in presence of RPMI 1640 medium; conditions: isolate 0001-033, 24 h
[18] = system: Nakaseomyces glabratus; assay: Antifungal activity against Candida glabrata isolate 0022-012 after 24 hrs by CLSI M27-A2 broth microdilution method in presence of RPMI 1640 medium; conditions: isolate 0022-012, 24 h
[19] = system: Pichia kudriavzevii; assay: Antifungal activity against Candida krusei isolate 0013-054 after 24 hrs by CLSI M27-A2 broth microdilution method in presence of RPMI 1640 medium; conditions: isolate 0013-054, 24 h
[20] = system: Clavispora lusitaniae; assay: Antifungal activity against Candida lusitaniae isolate 0013-002 after 24 hrs by CLSI M27-A2 broth microdilution method in presence of 50% human serum; conditions: isolate 0013-002, 24 h
[21] = system: Aspergillus flavus; assay: Antifungal activity against Aspergillus flavus isolate 0001-061 after 24 hrs by CLSI M38-A broth microdilution method in presence of 50% human serum; conditions: isolate 0001-061, 24 h
[22] = system: Candida tropicalis; assay: Antifungal activity against Candida tropicalis isolate 0050-028 after 24 hrs by CLSI M27-A2 broth microdilution method in presence of 50% human serum; conditions: isolate 0050-028, 24 h
[23] = system: Aspergillus fumigatus; assay: Ratio of MIC50 for Aspergillus fumigatus isolate […] in presence of 50% human serum to MIC50 for Aspergillus fumigatus isolate 0020-018 in presence of RPMI 1640 medium
[24] = system: Aspergillus fumigatus; assay: Antifungal activity against Aspergillus fumigatus isolate 0002-0016 after 24 hrs by CLSI M38-A broth microdilution method in presence of RPMI 1640 medium; conditions: isolate 0002-0016, 24 h
[25] = system: Pichia kudriavzevii; assay: Ratio of MIC50 for Candida krusei isolate 0013-054 in presence of 50% human serum to MIC50 for Candida krusei isolate 0013-054 in presence of RPMI 1640 medium
[26] = system: Candida parapsilosis; assay: Antifungal activity against Candida parapsilosis isolate 0014-074 after 24 hrs by CLSI M27-A2 broth microdilution method in presence of RPMI 1640 medium; conditions: Lodderomyces parapsilosis, isolate 0014-074, 24 h
[27] = system: Candida tropicalis; assay: Antifungal activity against Candida tropicalis isolate 0022-021 after 24 hrs by CLSI M27-A2 broth microdilution method in presence of 50% human serum; conditions: isolate 0022-021, 24 h
[28] = system: Aspergillus flavus; assay: Ratio of MIC50 for Aspergillus flavus isolate 0001-061 in presence of 50% human serum to MIC50 for Aspergillus flavus isolate 0001-061 in presence of RPMI 1640 medium
[29] = system: Candida parapsilosis; assay: Ratio of MIC50 for Candida parapsilosis ATCC 22019 in presence of 50% human serum to MIC50 for Candida parapsilosis ATCC 22019 in presence of RPMI 1640 medium
[30] = system: Candida tropicalis; assay: Antifungal activity against Candida tropicalis isolate 0050-028 after 24 hrs by CLSI M27-A2 broth microdilution method in presence of RPMI 1640 medium; conditions: isolate 0050-028, 24 h
[31] = system: Clavispora lusitaniae; assay: Antifungal activity against Candida lusitaniae isolate 0015-049 after 24 hrs by CLSI M27-A2 broth microdilution method in presence of 50% human serum
[32] = system: Candida albicans; assay: Antifungal activity against Candida albicans isolate 0021-076 after 24 hrs by CLSI M27-A2 broth microdilution method in presence of RPMI 1640 medium; conditions: isolate 0021-076, 24 h
[33] = system: Aspergillus fumigatus; assay: Antifungal activity against Aspergillus fumigatus isolate 0002-020 after 24 hrs by CLSI M38-A broth microdilution method in presence of RPMI 1640 medium; conditions: isolate 0002-020, 24 h

- MIC50 [1]: 0.5 µg/mL
- MIC50 [2]: 0.0156 µg/mL
- MIC50 [3]: 1 µg/mL
- MIC50 [4]: 0.5 µg/mL
- MIC50 [5]: 2 µg/mL
- MIC50 [6]: 0.5 µg/mL
- MIC50 [7]: 0.0156 µg/mL
- MIC50 [10]: 1 µg/mL
- MIC50 [11]: 2 µg/mL
- MIC50 [12]: 128 µg/mL
- MIC50 [15]: 128 µg/mL
- MIC50 [17]: 0.125 µg/mL
- MIC50 [18]: 0.0156 µg/mL
- MIC50 [19]: 0.125 µg/mL
- MIC50 [20]: 1 µg/mL
- MIC50 [21]: 128 µg/mL
- MIC50 [22]: 32 µg/mL
- MIC50 [24]: 0.0313 µg/mL
- MIC50 [26]: 0.0156 µg/mL
- MIC50 [27]: 2 µg/mL
- MIC50 [30]: 0.25 µg/mL
- MIC50 [31]: 4 µg/mL
- MIC50 [32]: 0.5 µg/mL
- MIC50 [33]: 0.004 µg/mL
SMILES: CCCCCOc1ccc(-c2cc(-c3ccc(C(=O)N[C@H]4C[C@@H](O)[C@@H](O)NC(=O)[C@@H]5[C@@H](O)[C@@H](C)CN5C(=O)[C@H]([C@H](O)CC(N)=O)NC(=O)[C@H]([C@H](O)[C@@H](O)c5ccc(O)c(OS(=O)(=O)O)c5)NC(=O)[C@@H]5C[C@@H](O)CN5C(=O)[C@H]([C@@H](C)O)NC4=O)cc3)no2)cc1 [MICAFUNGIN] (X1-[Orn(4R-OH,5R-OH)]T[Hyp][hTyr(3S-OH,4S-OH,3'-OSO3H)][Gln(3R-OH)][Pro(3S-OH,4S-Me)]; lactam 1-C)
- Ratio [8]: 128
- Ratio [9]: 64
- Ratio [13]: 32
- Ratio [14]: 256
- Ratio [16]: 32
- Ratio [23]: 32
- Ratio [25]: 64
- Ratio [28]: 1024
- Ratio [29]: 64
